Where two headings read alike, the source gives them in different places.
Columns and labels:
[1] = mice, [14C]INH, 10 mg/kg s.c., cited from earlier work
[2] = humans, cited from earlier work
[3] = PPB determination in pooled baboon plasma; conditions: monkey, pooled plasma
[4] = about 3 h after i.v. administration of 108.7 mg INH, [14C]INH tracer; cited from earlier work
[5] = monkeys, 6 h after i.v. administration of [14C]RIF; cited from earlier work
[6] = patients, 150 mg oral dose, cited from earlier work
in vitro = conditions: monkey, plasma

SMILES	INH concentration in brain ([1]; 30 min)	INH concentration in brain ([1]; 60 min)	INH CSF concentration ([2]; 8.5 mg/kg oral dose, 2 h)	INH CSF concentration ([2]; 108.7 mg oral dose, 1 h)	fraction unbound at 10 min [3]	INH concentration in surgically removed normal human lung [4]	RIF concentration in heart [5]	RIF concentration in kidney [5]	RIF concentration in liver [5]	RIF concentration in lung [5]	RIF bile concentration ([6]; 3–5 h)	RIF concentration in the liver [6]	fraction unbound at 10 min (in vitro)
NNC(=O)c1ccncc1 [INH, isoniazid]	4.4 µg/g	3.2 µg/g	1.9 µg/mL	0.31 µg/mL	0.946	1.79 µg/g	–	–	–	–	–	–	–
CO[C@H]1/C=C/O[C@@]2(C)Oc3c(C)c(O)c4c(O)c(c(/C=N/N5CCN(C)CC5)c(O)c4c3C2=O)NC(=O)/C(C)=C\C=C\[C@H](C)[C@H](O)[C@@H](C)[C@@H](O)[C@@H](C)[C@H](OC(C)=O)[C@@H]1C [RIF, rifampicin]	–	–	–	–	–	–	10.11 µg/g	14.69 µg/g	60.41 µg/g	8.32 µg/g	up to 538.5 µg/ml	22 to 35 µg/mL	0.273

From paper PMC2866172 (Journal of medicinal chemistry, 2010)
